Experiment [1] relates to Nt.CviPII-Protein A fusion. Put plainly: Inhibition of nicking activity of Nt.CviPII-Protein A fusion by heparin sodium salt. The class given is biochemical. Conditions: 2.5 units Nt.CviPII-Protein A, 0.5 μg pUC19, NEBuffer 2, 40 minutes 37° C. The method, then: In lanes 1-9, 2.5 units of NEFP was added to 0.5 μgs of plasmid DNA in the presence of increasing amounts of heparin (0.15-10 mg/ml). Digestion was not observed when 0.3 mg heparin/ml or greater amounts are present.
Nt.CviPII-Protein A fusion, sequence (as listed by the source): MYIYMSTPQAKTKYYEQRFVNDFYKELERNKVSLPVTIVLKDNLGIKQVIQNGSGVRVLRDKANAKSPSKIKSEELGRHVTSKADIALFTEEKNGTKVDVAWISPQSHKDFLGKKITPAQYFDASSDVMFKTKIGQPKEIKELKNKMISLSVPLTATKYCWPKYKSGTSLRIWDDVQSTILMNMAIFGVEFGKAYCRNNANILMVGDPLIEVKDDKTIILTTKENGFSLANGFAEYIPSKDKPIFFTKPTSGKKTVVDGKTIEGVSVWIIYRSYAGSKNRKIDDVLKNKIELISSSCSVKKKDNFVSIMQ
To determine the effect of heparin sodium salt on the inhibition of nicking activities of Nt.CviPII-Protein A fusion, reaction tubes containing 10, 5, 2.5, 1.25, 0.62, 0.31, 0.15, and 0 mg/ml heparin, sodium salt were added to a 50 μl reaction, consisting of 5 μl 10×NEBuffer 2, 2.5 units Nt.CviPII-Protein A (as described in Example 1(B)), and 0.5 μg pUC19 DNA and incubated for 40 minutes 37° C. 10 μl of DNA loading dye mix (5×) was added to the samples and were resolved on a 10% polyacrylamide gel. The gel was stained with SYBR® Green (Molecular Probes, Eugene, Oreg.) and scanned on a Typhoon® imager (GE Healthcare Bio-Sciences, Marlborough, Mass.).

For experiment [2], the system named is DNA-Nt.CviPII-Protein A complex. Put plainly: Gel-shift assay: dissociation of DNA-Nt.CviPII-Protein A complex by heparin. The experiment is classed as binding. The method, then: From left to right: C is a control that is DNA in the absence of a NEFP or heparin. 0 is a control in which nicking endonuclease was added to DNA in the absence of heparin. The DNA-NEFP complex (DNA-Nt.CviPII-Protein A complex) is seen as a band at the top of the lane.
To establish that the inhibitory effect of heparin, sodium salt in untethered Nt.CviPII-Protein A fusion activity was due to selective dissociation between DNA substrate and fusion enzyme, a gel-shift assay was performed. Double stranded DNA substrate containing constant amounts of Nt.CviPII binding domains (CCA, 5′[…]-F, F=fluorescein (SEQ ID NO:9)) and 3.2 μM Nt.CviPII-Protein A fusion were combined in the presence of 1×NEBuffer 2 in the absence of magnesium for 30 minutes at room temperature to enable an enzyme-substrate complex to be formed. Increasing amounts of heparin, sodium salt (0, 2.3, 4.6, […], 20, 42, 83, 166, 330 μg/ml) was added to the total 50 μl reaction volume. It was observed that a heparin concentration of greater than 0.2 mgs/ml (at least […]) enabled complete dissociation of the DNA-Nt.CviPII-Protein A complex as observed by the appearance of bands corresponding to DNA alone in a native 6% retardation gel (Thermo Fisher Scientific, Waltham, Mass.). It was concluded that Heparin causes dissociation Nt.CviPII-Protein A fusions from the bound substrate DNA (FIG. 2B).

In experiment [3] the test system is antibody-Protein A/G complex. In words: Effect of heparin on antibody-Protein A/G complex (magnetic beads, SDS gel). The experiment is classed as binding. Conditions: 0.125, 0.25, 0.5 and 1 mg/ml Heparin, 30 minutes, room temperature, Sodium Salt. From the text: The numbers on the top indicate added heparin quantity in the reaction mgs/ml.
Antibody heavy and light chains that are bound to Protein A/G can be released by boiling and resolved on an SDS gel (B). Any antibody that was free in solution having been eluted or displaced by heparin from Protein A/G could be visualized without boiling (E).
To determine the effect of heparin on the formation of the antibody-Protein A/G complex, 5 mgs of immobilized and covalently cross-linked protein A/G magnetic beads were bound to 50 μgs of IgG molecules in a 50 μl reaction volume containing 1×PBST at room temperature for 30 minutes. The complex was washed 3 times using 1 ml of 1×PBST and incubated with 0.125, 0.25, 0.5 and 1 mg/ml Heparin for 30 minutes at room temperature in 25 μl total volume. The bead-bound (B) and unbound or bead elution (E) fractions were collected, SDS sample buffer (New England Biolabs, Ipswich, Mass.) was added and the samples were incubated at 95° C. for 5 minutes. Both B and E samples were resolved on tricine 10% acrylamide gel and stained for protein.

Experiment [4] deals with pBR322 circular double stranded DNA. Put plainly: Nicking activity of Protein G/A-gHNH fusion on plasmid DNA (agarose gel). The following applies: 1 μg pBR322, NEBuffer 2 with manganese ions, 50 μl, 37° C., 1 hour. The experiment is classed as biochemical. Here is the method:
The nicking activity of Protein G-HNH was compared to a second non-fused nicking endonuclease (Nt.CviPII) (2 units) in the same gel to determine a generalized and consistent cleavage profile and was also compared to a control in the lane labeled 0 containing no nicking endonuclease either fused or unfused.
Protein G/A-gHNH fusion nicking activity was tested on pBR322 circular double stranded DNA using NEBuffer 2 in which magnesium ions were replaced by the same amount of manganese ions (1 mM). 1 μg of plasmid was used with 0.03 to 2 units of Protein G/A-gHNH fusion enzyme in a two-fold serial dilutions (2, 1, 0.5, 0.25, 0.125, 0.06, 0.03 units) in a total volume of 50 μl incubated at 37° C. for 1 hour. 10 μl of DNA loading dye mix (5×) was added to the nicked DNA. The nicked DNA samples were resolved on a 1% agarose gel and visualized under UV light. DNA fragment size was estimated along with 2 log DNA ladder (New England Biolabs, Ipswich, Mass.) and positive control Nt.CviPII (2 units) of the non-fused nicking endonuclease, (New England Biolabs, Ipswich, Mass.) digested pBR322 DNA (FIG. 1B). […] A representative figure supporting this conclusion is provided in FIG. 1B for Protein G-gHNH fusions.

As for Heparin Sodium Salt, the results for the “heparin concentration giving total inhibition of nicking (no digestion)” value in experiment [1] and in experiment [1] (listed as heparin) were 0.15 to 0.31 mg/mL and at least 0.3 mg/mL, respectively. Also, the “heparin concentration enabling complete dissociation of the DNA-Nt.CviPII-Protein A complex” value in experiment [2] (3.2 μM Nt.CviPII-Protein A, fluorescein dsDNA, NEBuffer 2 without magnesium, room temperature) was “greater than 0.2 mgs/ml”. For the same molecule, the “heparin concentration at which NEFP is released entirely from the DNA” value in experiment [2] (FIG. 2B legend, buffer without magnesium ions) was above 4.6 mg/mL. In addition, the “effect of heparin on antibody bound to Protein A/G beads” value is listed as “cannot dissociate Protein A/G-antibody reaction” in experiment [3] (listed as Heparin) and “no elution or displacement of antibody occurred” in experiment [3] (listed as heparin).

B1: Protein G-gHNH: NEFP: Protein G fused via linker to gHNH nicking endonuclease, SEQ ID NO: 5 (protein)
chain: MKGETTTEAVDAATAEKVFKQYANDNGVDGEWTYDDATKTFTVTEKPEVIDASELTPAVTTYKLVINGKTLKGETTTEAVDAATAEKVFKQYANDNGVDGEWTYDDATKTFTVTEKPEVIDASELTPAVTTYKLVINGKTLKGETTTKAVDAETAEKAFKQYANDNGVDGVWTYDDATKTFTVTEGSATIVKKPLRPCCEFHCYNLTRERYCEEHRYKEKETQQDKNRYYDRFKRDKESTAFYRSKAWERLREQALMRDKGLCLHCKNNRKIKVADMVDHIIPIKVDPSLKLKLENLQSLCNPCHNRKTAEDKKKYG
As to B1, the “amount of fusion enzyme giving partial digestion of the DNA” value in experiment [4] is on record as 0.03 units.

The values above are taken from patent publication US11492667B2, “Compositions and methods for detecting molecular targets on chromosomal DNA” (New England Biolabs, Inc., priority 2020, dated 2022).
